Experimental data: publication PMC10224444, “Novel Perspectives on the Design and Development of a Long-Acting Subcutaneous Raltegravir Injection for Treatment of HIV—In Vitro and In Vivo Evaluation” (Pharmaceutics, 2023)
Where “and” joins values, the source holds several entries; their conditions need not be identical. Equal values may be shown once.

Assays:
[1] = In vitro release test in 50% PBS (pH 7.4, 34 °C), HPLC; format: physicochemical; conditions: for half-life: 50% PBS pH 7.4, 25 µM CTG probes, 100 µM prodrug 25, calculated as 0.69/kobs, read-out: t½ (half-life of payload release) (converted)
Description: (§1) Probes 14–15 and 20–21 stock solutions were prepared at 1000 µM (1 mM) in a 1:1 mixture of MeCN/water, followed by serial dilution with deionised water to give a 50 µM working concentration. Each experiment was run in triplicate after dilution of 0.5 mL of the stock solution with 0.5 mL of PBS (pH 7.4) or Tris buffer (pH 7.4), giving a final assay concentration of 25 µM for the probes. The samples were incubated at 34 °C to mimic the conditions found in SC tissue. Every day, a 2 µL aliquot of each sample was subjected to HPLC analysis using an Agilent 1260 Infinity instrument, with conditions as follows. Column: Agilent ZORBAX Eclipse Plus C18 Rapid Resolution, 3.5 μm (4.6 × 100 mm), pore size (95 Å); column temperature (35 °C). The mobile phases were solvent A: 0.1% TFA in ultrapure H2O and solvent B: 0.1% TFA in MeCN. The injection volume was 2 μL and the flow rate was kept at 1.0 mL/min. The analysis was performed using a gradient elution of 5–100% of solvent B in solvent A over 9 min, then maintained for a further 1 min at two wavelengths: 254 nm and 214 nm. The retention times of CTG and probes 14–15 and 20–21 were 4.13, 4.27, 4.93, 5.55, and 5.71 min, respectively. A calibration curve for the free CTG fluorophore was constructed over the concentration range of 10–100 µM at pH 7.4. The data were fit by linear regression to the equation y = 14.615x − 0.067, where y is the peak area of the analyte and x is the analyte concentration (µM). The correlation coefficient (R2) was computed as 0.999, confirming the linearity of used method under the specified measured concentrations.
Likewise, a test solution of prodrug 25 was incubated in 50% PBS at 100 µM final concentration, and analysed using the same HPLC method but with detection at 254 nm only. A higher concentration of 25 was used due to its relatively weaker absorption at 254 nm, compared with CTG. The retention times of RAL and prodrug 25 were 4.47 and 5.55 min, respectively. A calibration curve of RAL was constructed over the range 50–1000 µM. The data were fit by linear regression as before to give the equation y = 5.1961x − 20.064, with a similar goodness of fit (R^2 ≥ 0.999).
(§2) In vitro Release assays for probes 14–15 and 20–21 were conducted using pH and temperature conditions similar to those of SC tissue (pH 7.4 and 34 °C). Test compounds were dissolved in either MeCN/PBS (1:1, pH 7.4) or MeCN/Tris buffer (1:1, pH 7.4) at 25 µM, then incubated at 34 °C. Aliquots were taken daily and analysed by HPLC and LC-MS until complete fluorophore release was achieved. HPLC was preferred over fluorometric-based assay to study the stability of the synthesised probes because of the bleaching effect that may occur to the fluorophore over the long analysing periods. Photobleaching is the inability of the fluorophore to fluoresce due to the fluorophore instability upon repeated exposure to light over long periods. It can be a particular problem for fluorescence-based assays, thereby rationalising the choice of HPLC in the current work.
Similarly to the assays above, prodrug 25 (100 µM) was incubated in 50% PBS at 34 °C, and aliquots analysed daily by HPLC and LC-MS until full RAL release was achieved.

[2] = Pharmacokinetic study after single SC injection in BALB/c mice; format: in vivo; conditions: mouse, plasma level of the dosed compound, single SC 30 mg/kg, male BALB/c mice, n = 3
Description: The pharmacokinetic profile of prodrug 25 was evaluated in mice, in a study undertaken at WuXi AppTec. Prodrug 25 was dissolved in a sterile vehicle of DMSO/Solutol HS15/water (10:10:80) to give a clear solution with a final concentration of 6 mg/mL. The same procedure was used to prepare a 6 mg/mL solution of RAL as a control. Six male BALB/c mice were used, each weighing 18–25 g and aged between 7–9 weeks (three per group). A single 30 mg/kg dose of prodrug 25 was administered to each animal in the treatment group (subcutaneously, in the thoracic region). Similarly, RAL (30 mg/kg) was administered to each animal in the control group. Blood samples were taken at the time points indicated below, up to the experiment endpoint (96 h).
For each animal, blood samples (30 μL each) were collected from the submandibular or saphenous vein over a period of 96 h, at the following time points: zero/pre-dose; then 0.25, 0.5, 1, 2, 3, 4, 5, 6, 24, 48, and 96 h. All samples were transferred into pre-chilled commercial K2EDTA tubes and placed on wet ice until processing for plasma, which was obtained by centrifugation at 4 °C and 3200× g for 10 min, within 30 min of sampling. The plasma samples were transferred to polypropylene tubes, snap-frozen on dry ice, and kept at −70 ± 10 °C until LC-MS/MS analysis.
An LC-MS/MS method was developed to measure the concentrations of prodrug 25 and RAL in the biological matrix. Two mobile phases were used: mobile phase A (0.025% NH4OH and 2 mM NH4OAc in 95:5 v/v water/MeCN) and mobile phase B (0.025% NH4OH and 2 mM NH4OAc in 5:95 v/v water/MeCN). A UPLC method was performed using an LC-MS/MS-BM Triple Quad 6500 plus system with an ACQUITY UPLC BEH C18 1.7 μm column (2.1 × 50 mm) at a flow rate of 0.65 mL/min. The assay time was 2.5 min, and the solvent B composition was as follows: 10–100% (0.2–1.4 min), 30% (1.41–1.7 min), 95% (2.0–2.4 min), and 10% (2.41–2.5 min). The retention times for the prodrug, RAL and the internal standards (tolbutamide and verapamil) were 0.76, 1.04, 0.66, and 0.97 min, respectively. Quantification was performed by monitoring the transition of m/z 835.3 [M+H]^+ to 457.2 for prodrug 25, representing the cyclisation of the linker with the amidic RAL such as in side-product 22; whereas for RAL, the transition m/z 445.2 [M+H]^+ to 361.2 was followed, representing the loss of the 2-methyl-1,3,4-oxadiazole moiety as the main fragmentation pathway. For the internal standards, the m/z transition from 455.2 [M+H]^+ to 164.9 was used for verapamil (corresponding to formation of the verapamil fragment [CH2CH2-(3,4-dimethoxy phenyl)]^+), and for tolbutamide, the transition of m/z of 271.1 [M+H]^+ to 155.1 was used, representing formation of the [CH3-Ph-SO2]^+ fragment. […] The method was linear over the measured standard concentrations for 25 and RAL. The mean plasma concentration was determined for 25 and RAL (as metabolite or control) at each sampling time point. Pharmacokinetic parameters were then calculated by non-compartmental analysis of plasma concentration/time profiles using the Phoenix WinNonlin 6.3 software. The computed parameters were as follows: peak plasma concentration (Cmax); the time over which the initial concentration is reduced to half (t½); area under the plasma concentration versus time curve from time zero to 96 h (AUC 0–96 h); and mean residence time from time zero to 96 h (MRT 0–96 h).
Since in vitro models are not fully predictive of in vivo pharmacokinetics, especially for prodrugs, assessment of these characteristics still relies on in vivo studies. Therefore, the pharmacokinetic profile of prodrug 25 was evaluated in mice. Compound 25 and the control (RAL) were dissolved in DMSO/Solutol HS15/water (10:10:80). For a single SC injection of 25 (30 mg/kg) in BALB/c mice (n = 3), the plasma concentrations of prodrug and released RAL were measured at the following time points: zero/pre-dose; then 0.25, 0.5, 1, 2, 3, 4, 5, 6, 24, 48, and 96 h. […]

[3] = In vitro release test in 50% Tris buffer (pH 7.4, 34 °C), HPLC; format: physicochemical; conditions: 25 µM probe
Description: as §1, §2

[4] = 50% PBS, pH 7.4, 34 °C, 25 µM probe, 1 d
[5] = 50% PBS, pH 7.4, 34 °C, 25 µM probe

Compound	half-life ([1]; 50% PBS buffer) [h]	time to maximal release of payload ([1]; 50% PBS, pH 7.4, 34 °C) [days]	half-life [1] [h]	CTG fluorophore released after 1 d [1, 4] [%]	CTG fluorophore released after 2 d [1, 5] [%]	CTG release after 1 d in 50% Tris buffer [3] [%]	also measured
Cc1nnc(C(=O)NC(C)(C)c2nc(C(=O)NCc3ccc(F)cc3)c(OCOC(=O)OCCCCCCNCCCc3cn(CCP(=O)(O)O)nn3)c(=O)n2C)o1 [Compound 25, 6-(((((4-((4-Fluorobenzyl)Carbamoyl)-1-Methyl-2-(2-(5-Methyl-1,3,4-Oxadiazole-2-Carboxa-Mido)Propan-2-Yl)-6-Oxo-1,6-Dihydropyrimidin-5yl)Oxy)Methoxy)Carbonyl)Oxy)-N-(3-(1-(2-Phosphonoethyl)-1H-1,2,3-Triazol-4-Yl)Propyl)Hexan-1-Aminium Chloride]	463	45	–	–	–	–	release kinetics (order) ([1]; 50% PBS, pH 7.4): first-order kinetics; RAL released after 1 d ([1]; 50% PBS, pH 7.4, 34 °C, 100 µM prodrug, 1 d): 8.4%; RAL released after 10 d ([1]; 50% PBS, pH 7.4, 34 °C, 100 µM prodrug, 10 d): 31.5%; RAL released after 45 d (plateau) ([1]; 50% PBS, pH 7.4, 34 °C, 100 µM prodrug, 45 d): 82% and 82.1%; degree of side-product (27) formation ([1]; 50% PBS, pH 7.4, 34 °C, hydrolysis of RAL oxadiazole, accounts for unreleased RAL): 15.2%; Cmax [2]: 4.55 µg/mL; Tmax [2]: 0.25 h; AUC(0-t) ([2]; read-out: AUC 0–96 h): 3.27 µg·h/mL; half-life ([2]; read-out: t½ (converted)): 0.85 h
Cc1cc(C(=O)OC(C)(C)C)ccc1-c1c2ccc(=O)cc-2oc2cc(OCOC(=O)OCCCCCCNCCCc3cn(CCP(=O)(O)O)nn3)ccc12.Cl [Compound 21, 6-(((((9-(4-(Tert-Butoxycarbonyl)-2-Methylphenyl)-3-Oxo-3H-Xanthen-6-yl)Oxy)Methoxy)Carbonyl)Oxy)-N-(3-(1-(2-Phosphonoethyl)-1H-1,2,3-Triazol-4-yl)Propyl)Hexan-1-Aminium Chloride]	–	15	75.6	20	33	80.9	CTG fluorophore released after 15 d ([1]; 50% PBS, pH 7.4, 34 °C, 25 µM probe, 15 d): 98%
Cc1cc(C(=O)O)ccc1-c1c2ccc(=O)cc-2oc2cc(OCOC(=O)OCCCCCNCCCc3cn(CCP(=O)(O)O)nn3)ccc12.Cl [Compound 20, 5-(((((9-(4-Carboxy-2-Methylphenyl)-3-Oxo-3H-Xanthen-6-yl)Oxy)Methoxy)Carbonyl)Oxy)-N-(3-(1-(2-Phosphonoethyl)-1H-1,2,3-triazol-4-yl)Propyl)Pentan-1-Aminium Chloride]	–	–	69.1	25	41	82.5	CTG fluorophore released after 13 d ([1]; 50% PBS, pH 7.4, 34 °C, 25 µM probe, 13 d): 98%
C#CCCCNCCCCCCOC(=O)OCOc1ccc2c(-c3ccc(C(=O)O)cc3C)c3ccc(=O)cc-3oc2c1.Cl [Compound 15, 6-(((((9-(4-Carboxy-2-methylphenyl)-3-oxo-3H-xanthen-6-yl)oxy)methoxy)carbonyl)oxy)-N-(pent-4-yn-1-yl)hexan-1-aminium chloride]	–	–	47.5	29	50	86.2	CTG fluorophore released after 10 d ([1]; 50% PBS, pH 7.4, 34 °C, 25 µM probe, 10 d): 98%
C#CCCCNCCCCCOC(=O)OCOc1ccc2c(-c3ccc(C(=O)O)cc3C)c3ccc(=O)cc-3oc2c1.Cl [Compound 14, N-(5-(((((9-(4-Carboxy-2-methylphenyl)-3-oxo-3H-xanthen-6-yl)oxy)methoxy)carbonyl)oxy)pentyl)pent-4-yn-1-aminium chloride]	40.6	–	–	36	58	89.2	CTG fluorophore released after 9 d ([1]; 50% PBS, pH 7.4, 34 °C, 25 µM probe, 9 d): 98%
